Laboratory results taken from patent publication US5091367A, “Analogs of gonadoliberin with improved solubility, methods for their preparation, agents containing them and their use” (Hoechst Aktiengesellschaft, priority 1986, dated 1992).
Values after ≈ are worked out from the molar mass of the structure shown.

Legend:
rat super-ovulation = experiment: biological activity in rat super-ovulation; type: in vivo
[1] = solubility in a neutral buffer used for nasal application; settings: well compatible neutral buffer as used for nasal application of protirelin
Serum testosterone = experiment: serum testosterone after Gn-RH antagonist (Table 2); type: in vivo; settings: untreated control 3.63 ± 0.59
Description: The Gn-RH antagonists according to the invention have an inhibitory effect on the formation of lutropin and follitropin and, as a result, also on the synthesis of testosterone and estrogen (see Table 2). They can be employed as high-dose Gn-RH […] in gonadotropin- and steroid-dependent diseases.

Compound	ED20-50 Super-ovul. (rat super-ovulation)	Solubility in neutral nasal buffer [1]	Serum testosterone (Serum testosterone)
Pgl-His-Trp-Ser-Tyr-D-Trp-Ser(β-L-Xyl)-Arg-Pro-NH-C2 H5	48 ng/rat	1100 µg/mL	–
Pgl-His-Trp-Ser-Tyr-D-Trp-Ser(β-D-Xyl)-Arg-Pro-NH-C2 H5	6 ng/rat	1700 µg/mL	–
Pgl-His-Trp-Ser-Tyr-D-Trp-Ser(Ac-α-L-Rha)-Arg-Pro-NH-C2 H5	> 24 ng/rat	500 µg/mL	–
Pgl-His-Trp-Ser-Tyr-D-Ser(β-D-Glc-NAc)-Leu-Arg-Pro-NH-C2 H5	< 6 ng/rat	125000 µg/mL	–
Pgl-His-Trp-Ser-Tyr-D-Trp-Ser(Ac-β-D-Glc)-Arg-Pro-NH-C2 H5	5 ng/rat	2500 µg/mL	–
Pgl-His-Trp-Ser-Tyr-D-Ser(Ac-β-L-Fuc)-Leu-Arg-Pro-NH-C2 H5	6 ng/rat	10000 µg/mL	–
Pgl-His-Trp-Ser-Tyr-D-Ser(Ac-α-L-Rha)-Leu-Arg-Pro-NH-C2 H5	3 ng/rat	50000 µg/mL	–
Pgl-His-Trp-Ser-Tyr-D-Trp-Ser(D-Ara)-Arg-Pro-NH-C2 H5	24 ng/rat	5000 µg/mL	–
Pgl-His-Trp-Ser-Tyr-D-Trp-Ser(Ac2 -α-D-Man)-Arg-Pro-NH-C2 H5	> 24 ng/rat	10000 µg/mL	–
CCNC(=O)[C@@H]1CCCN1C(=O)[C@H](CCCNC(=N)N)NC(=O)[C@H](CC(C)C)NC(=O)[C@@H](Cc1c[nH]c2ccccc12)NC(=O)[C@H](Cc1ccc(O)cc1)NC(=O)[C@H](CO)NC(=O)[C@H](Cc1c[nH]c2ccccc12)NC(=O)[C@H](Cc1c[nH]cn1)NC(=O)[C@@H]1CCC(=O)N1 [LH--RH--T, Pgl--His--Trp--Ser--Tyr--D-Trp--Leu--Arg--Pro--NH--C2 H5, reference compound]	3 ng/rat	–	–
Pgl-His-Trp-Ser-Tyr-D-Trp-Ser(Ac-β-L-Fuc)-Arg-Pro-NH-C2 H5	200 ng/rat	10000 µg/mL	–
Pgl-His-Trp-Ser-Tyr-D-Ser(D-Rib)-Leu-Arg-Pro-NH-C2 H5	< 6 ng/rat	10000 µg/mL	–
Pgl-His-Trp-Ser-Tyr-D-Trp-Ser(D-Rib)-Arg-Pro-NH-C2 H5	< 24 ng/rat	25000 µg/mL	–
Pgl-His-Trp-Ser-Tyr-D-Trp-Ser(β-D-Glc-NAc)-Arg-Pro-NH-C2 H5	> 24 ng/rat	125000 µg/mL	–
CCNC(=O)[C@@H]1CCCN1C(=O)[C@H](CCCNC(=N)N)NC(=O)[C@H](CC(C)C)NC(=O)[C@@H](CO[C@H]1O[C@H](CO)[C@@H](O)[C@H](O)[C@@H]1O)NC(=O)[C@H](Cc1ccc(O)cc1)NC(=O)[C@H](CO)NC(=O)[C@H](Cc1c[nH]c2ccccc12)NC(=O)[C@H](Cc1c[nH]cn1)NC(=O)[C@@H]1CCC(=O)N1 [Pgl-His-Trp-Ser-Tyr-D-Ser(α-D-Man)-Leu-Arg-Pro-NH-C2 H5]	6 ng/rat	62500 µg/mL (≈ 46500 µM)	–
Ac-D-Nal-p-Cl-D-Phe-D-Trp-Ser-Arg-D-Ser(α-L-Rha)-Leu Arg-Pro-Azagly-NH2	–	–	2.27 ± 0.28 ng/mL
Pgl-His-Trp-Ser-Tyr-D-Ser(β-D-Gal)-Leu-Arg-Pro-NH-C2 H5	12 ng/rat	125000 µg/mL	–
Pgl-His-Trp-Ser-Tyr-D-Ser(D-Ara)-Leu-Arg-Pro-NH-C2 H5	< 24 ng/rat	125000 µg/mL	–
Pgl-His-Trp-Ser-Tyr-D-Trp-Ser(Ac-β-D-Xyl)-Arg-Pro-NH-C2 H5	6 ng/rat	2500 µg/mL	–

Compound	ED20-50 Super-ovul. (rat super-ovulation)	Solubility in neutral nasal buffer [1]	Serum testosterone (Serum testosterone)
Pgl-His-Trp-Ser-Tyr-D-Ser(β-Lac)-Leu-Arg-Pro-NH-C2 H5	12 ng/rat	167000 µg/mL	–
CCNC(=O)[C@@H]1CCCN1C(=O)[C@H](CCCNC(=N)N)NC(=O)[C@H](CC(C)C)NC(=O)[C@@H](CO[C@@H]1O[C@H](CO)[C@@H](O)[C@H](O)[C@H]1O)NC(=O)[C@H](Cc1ccc(O)cc1)NC(=O)[C@H](CO)NC(=O)[C@H](Cc1c[nH]c2ccccc12)NC(=O)[C@H](Cc1c[nH]cn1)NC(=O)[C@@H]1CCC(=O)N1 [Pgl-His-Trp-Ser-Tyr-D-Ser(β-D-Glc)-Leu-Arg-Pro-NH-C2 H5]	12 ng/rat	125000 µg/mL (≈ 92900 µM)	–
Pgl-His-Trp-Ser-Tyr-D-Ser(β-D-Xyl)-Leu-Arg-Pro-NH-C2 H5	6 ng/rat	50000 µg/mL	–
Pgl-His-Trp-Ser-Tyr-D-Trp-Ser(β-Lac)-Arg-Pro-NH-C2 H5	< 48 ng/rat	167000 µg/mL	–
CCNC(=O)[C@@H]1CCCN1C(=O)[C@H](CCCNC(=N)N)NC(=O)[C@H](CO[C@H]1O[C@H](CO)[C@@H](O)[C@H](O)[C@@H]1O)NC(=O)[C@@H](Cc1c[nH]c2ccccc12)NC(=O)[C@H](Cc1ccc(O)cc1)NC(=O)[C@H](CO)NC(=O)[C@H](Cc1c[nH]c2ccccc12)NC(=O)[C@H](Cc1c[nH]cn1)NC(=O)[C@@H]1CCC(=O)N1 [Pgl-His-Trp-Ser-Tyr-D-Trp-Ser(α-D-Man)-Arg-Pro-NH-C2 H5]	> 24 ng/rat	3300 µg/mL (≈ 2330 µM)	–
CCNC(=O)[C@@H]1CCCN1C(=O)[C@H](CCCNC(=N)N)NC(=O)[C@H](CC(C)C)NC(=O)[C@@H](COC(C)(C)C)NC(=O)[C@H](Cc1ccc(O)cc1)NC(=O)[C@H](CO)NC(=O)[C@H](Cc1c[nH]c2ccccc12)NC(=O)[C@H](Cc1cnc[nH]1)NC(=O)[C@@H]1CCC(=O)N1 [Buserelin, Pgl--His--Trp--Ser--Tyr--D-Ser(tBu)--Leu--Arg--Pro--NH--C2 H5, reference compound]	3 ng/rat	1250 µg/mL (≈ 1010 µM)	–
Pgl-His-Trp-Ser-Tyr-D-Ser(L-Ara)-Leu-Arg-Pro-NH-C2 H5	12 ng/rat	125000 µg/mL	–
CCNC(=O)[C@@H]1CCCN1C(=O)[C@H](CCCNC(=N)N)NC(=O)[C@H](CO[C@H]1O[C@@H](C)[C@@H](O)[C@@H](O)[C@@H]1O)NC(=O)[C@@H](Cc1c[nH]c2ccccc12)NC(=O)[C@H](Cc1ccc(O)cc1)NC(=O)[C@H](CO)NC(=O)[C@H](Cc1c[nH]c2ccccc12)NC(=O)[C@H](Cc1c[nH]cn1)NC(=O)[C@@H]1CCC(=O)N1 [Pgl-His-Trp-Ser-Tyr-D-Trp-Ser(β-L-Fuc)-Arg-Pro-NH-C2 H5]	> 200 ng/rat	2500 µg/mL (≈ 1780 µM)	–
Pgl-His-Trp-Ser-Tyr-D-Ser(β-L-Xyl)-Leu-Arg-Pro-NH-C2 H5	6 ng/rat	10000 µg/mL	–
Pgl-His-Trp-Ser-Tyr-D-Trp-Ser(α-L-Rha)-Arg-Pro-NH-C2 H5	> 24 ng/rat	1400 µg/mL	–
Pgl-His-Trp-Ser-Tyr-D-Ser(α-L-Rha)-Leu-Arg-Pro-NH-C2 H5	3 ng/rat	167000 µg/mL	–
CCNC(=O)[C@@H]1CCCN1C(=O)[C@H](CCCNC(=N)N)NC(=O)[C@H](CC(C)C)NC(=O)[C@@H](CO[C@H]1O[C@@H](C)[C@@H](O)[C@@H](O)[C@@H]1O)NC(=O)[C@H](Cc1ccc(O)cc1)NC(=O)[C@H](CO)NC(=O)[C@H](Cc1c[nH]c2ccccc12)NC(=O)[C@H](Cc1c[nH]cn1)NC(=O)[C@@H]1CCC(=O)N1 [Pgl-His-Trp-Ser-Tyr-D-Ser(β-L-Fuc)-Leu-Arg-Pro-NH-C2 H5]	6 ng/rat	167000 µg/mL (≈ 126000 µM)	–
Pgl-His-Trp-Ser-Tyr-D-Trp-Ser(Ac2 -β-L-Fuc)-Arg-Pro-NH-C2 H5	200 ng/rat	3300 µg/mL	–
CCNC(=O)[C@@H]1CCCN1C(=O)[C@H](CCCNC(=N)N)NC(=O)[C@H](CO[C@@H]1O[C@H](CO)[C@@H](O)[C@H](O)[C@H]1O)NC(=O)[C@@H](Cc1c[nH]c2ccccc12)NC(=O)[C@H](Cc1ccc(O)cc1)NC(=O)[C@H](CO)NC(=O)[C@H](Cc1c[nH]c2ccccc12)NC(=O)[C@H](Cc1c[nH]cn1)NC(=O)[C@@H]1CCC(=O)N1 [Pgl-His-Trp-Ser-Tyr-D-Trp-Ser(β-D-Glc)-Arg-Pro-NH-C2 H5]	6 ng/rat	2500 µg/mL (≈ 1760 µM)	–
Pgl-His-Trp-Ser-Tyr-D-Trp-Ser(L-Ara)-Arg-Pro-NH-C2 H5	48 ng/rat	1250 µg/mL	–
Ac-D-Nal-p-Cl-D-Phe-D-Trp-Ser-His-D-Ser(α-L-Rha)-Leu-Arg-Pro-Azagly-N H2	–	–	1.34 ± 0.17 ng/mL
Ac-D-Nal-p-Cl-D-Phe-D-Trp-Ser-Tyr-D-Ser(α-L-Rha)-Leu-Arg-Pro-Azagly-N H2	–	–	2.30 ± 0.47 ng/mL
Pgl-His-Trp-Ser-Tyr-D-Trp-Ser(Ac-α-D-Man)-Arg-Pro-NH-C2 H5	> 24 ng/rat	10000 µg/mL	–
Pgl--His--Trp--Ser--Tyr--D-Trp--Ser(β-D-Gal)--Arg--Pro--NH--C2 H5	–	10000 µg/mL	–
